Legend:
[1] = Compound was evaluated for concentration that caused 50% inhibition of yeast Farnesyltransferase (expressed as a GST fusion protein in Escherichia coli)
[2] = Compound was evaluated for concentration that caused 50% inhibition of bovine Farnesyltransferase

Row | Structure (SMILES) | IC50 [1] [µM] | IC50 [2] [µM]
1 | CSCC[C@H](NC(=O)[C@@H]1CC[C@@H]2CC[C@](Cc3ccccc3)(NC(=O)[C@H](CS)NC(=O)OCC3c4ccccc4-c4ccccc43)C(=O)N21)C(=O)O [(S)-2-({(3S,6R,8aR)-6-Benzyl-6-[(R)-2-(9H-fluoren-9-ylmethoxycarbonylamino)-3-mercapto-propionylamino]-5-oxo-octahydro-indolizine-3-carbonyl}-amino)-4-methylsulfanyl-butyric acid] | 5 | 
2 | CSCCC(NC(=O)[C@@H]1CC[C@@H]2CC[C@](Cc3ccccc3)(NC(=O)[C@@H](N)CS)C(=O)N21)C(=O)O (stereo partly drawn) [(S)-2-{[(3S,6R,8aR)-6-((R)-2-Amino-3-mercapto-propionylamino)-6-benzyl-5-oxo-octahydro-indolizine-3-carbonyl]-amino}-4-methylsulfanyl-butyric acid] |  | > 200
3 | CSCC[C@H](NC(=O)[C@@H]1CC[C@@H]2CCC[C@H](NC(=O)[C@H](N)CS)C(=O)N21)C(=O)O [(S)-2-{[(3S,6S,9aS)-6-((S)-2-Amino-3-mercapto-propionylamino)-5-oxo-octahydro-pyrrolo[1,2-a]azepine-3-carbonyl]-amino}-4-methylsulfanyl-butyric acid] |  | > 200
4 | CSCC[C@H](NC(=O)[C@H](Cc1ccccc1)NC[C@@H](NC[C@@H](N)CS)C(C)C)C(=O)O [N-[2(S)-[2(R)-amino-3-mercaptopropylamino]-3-methylbutyl]-Phe-Met-OH] | 0.3 | 0.021

Source: BindingDB's records for doi:10.1016/s0960-894x(99)00094-3 (Cold Spring Harbor Laboratory, 1999)
